The target in data set [1] is T1, progesterone receptor (PR) (Homo sapiens, UniProt P06401).
T1 construct: endogenous in cells; host or cells: T47D breast carcinoma cells
T1 sequence (P06401 1-933): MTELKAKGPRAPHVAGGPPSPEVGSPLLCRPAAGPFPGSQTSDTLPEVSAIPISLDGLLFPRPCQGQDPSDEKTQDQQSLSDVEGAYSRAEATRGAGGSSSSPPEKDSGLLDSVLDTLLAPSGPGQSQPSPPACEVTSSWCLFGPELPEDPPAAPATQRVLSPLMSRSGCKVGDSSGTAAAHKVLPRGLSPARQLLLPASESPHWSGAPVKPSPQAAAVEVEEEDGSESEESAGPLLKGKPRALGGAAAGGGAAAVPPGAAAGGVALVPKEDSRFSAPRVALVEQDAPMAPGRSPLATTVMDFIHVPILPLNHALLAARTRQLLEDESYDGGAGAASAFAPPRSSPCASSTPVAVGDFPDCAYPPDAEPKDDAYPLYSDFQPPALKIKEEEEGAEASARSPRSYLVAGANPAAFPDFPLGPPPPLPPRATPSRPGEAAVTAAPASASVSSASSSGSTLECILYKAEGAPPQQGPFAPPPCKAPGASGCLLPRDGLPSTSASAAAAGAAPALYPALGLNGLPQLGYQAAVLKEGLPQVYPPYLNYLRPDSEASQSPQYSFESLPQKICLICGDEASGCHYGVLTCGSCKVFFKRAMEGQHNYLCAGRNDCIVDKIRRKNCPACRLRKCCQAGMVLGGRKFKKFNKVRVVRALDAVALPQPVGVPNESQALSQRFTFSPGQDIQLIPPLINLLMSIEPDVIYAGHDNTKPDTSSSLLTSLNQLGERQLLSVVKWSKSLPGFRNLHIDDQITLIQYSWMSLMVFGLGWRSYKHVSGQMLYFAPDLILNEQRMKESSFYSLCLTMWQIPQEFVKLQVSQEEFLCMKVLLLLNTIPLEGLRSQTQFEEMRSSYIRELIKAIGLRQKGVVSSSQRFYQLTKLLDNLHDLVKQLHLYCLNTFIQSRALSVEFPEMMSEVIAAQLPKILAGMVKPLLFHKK
Description: T47D alkaline phosphatase (AP) potency assay. It counts as cell-based. The conditions noted are these: for EC50 / T47D alkaline phosphatase assay EC50: agonist response, 48 h incubation; for EC50 / T47D alkaline phosphatase assay EC50 / IC50: average of at least n = 3 ± SD; for IC50: inhibition of progesterone. Here is the method:
The method described by Di Lorenzo et al was followed with minor adaptation (Di Lorenzo et al., [1991]). In brief, T47D breast carcinoma cells were seeded in 96-well plates at 50,000 cell/well in RPMI medium supplemented with 10% FBS. After overnight culture, the medium was changed to RPMI phenol red free containing 2% charcoal-stripped FBS. After 24 h, the cells were treated with progesterone (Sigma Aldrich, Gillingham, UK) or the library compounds. Progesterone and the test compounds were dissolved in DMSO (100%) and diluted into treatment medium to give a final DMSO (v/v) concentration of 0.1%. After incubation (48 h) the treatment was finalised by twice washing the plates with PBS. Cells were lysed by two freeze-thaw cycles (− 80 °C). Cellular alkaline phosphatase activity was determined by adding Femto ELISA-AP substrate (200 μL) and optical density measurements taken at 5 and 10 min intervals at a wavelength of 405 nm. Data was interpreted using Graphpad Prism (GraphPad, CA, USA) using the model: dose-response simulation/inhibition, log(agonist/inhibition) vs. response – variable slope (four parameters). For compounds where EC50 > 10,000, an antagonist profile was assumed and the experiment was repeated with the inclusion of progesterone (3 mM) with the library compound. Data shown in the supporting information (Additional file 1: Figure S32).

A short description of data set [2]: In vitro non-radioactive metabolite analysis and clearance in MLM. It counts as in vitro ADME, mouse. Here is the method:
(§1) Microsomal incubations were performed using a Hamilton Microlab Star liquid handling workstation (Hamilton Robotics, Bonaduz, Switzerland). Test compound 2 (final concentration 1 or 10 μM, 1% DMSO) was pre-incubated at 37 °C for 10 min in MLM or HLM (final concentration 1 mg/ml prepared in 10 mM PBS). Reactions were initiated by the addition of NADPH (final concentration 1 mM). Aliquots were removed from each incubation and quenched in 3 volumes of ice-cold MeOH containing internal standard olomoucine (500 nM in MeOH) at − 1, 0, 5, 15, 30 and 60 min. Incubations were conducted in singlicate. […] Terminated incubations were centrifuged at 3700 rpm at 4 °C for 30 min and supernatant taken for analysis. Microsomal incubations were analysed by liquid chromatography-tandem mass spectrometry (LC-MS/MS). This consisted of a Dionex Ultimate 3000 UHPLC system coupled to a ThermoScientific Q Exactive Plus orbitrap mass spectrometer (Thermo Fisher Scientific Inc., Waltham, USA). Chromatographic separation was achieved using an Acquity UPLC HSS T3 column (1.8 μm, 100 × 2.1 mm) (Waters, Elstree, UK) at 50 °C and a binary mobile phase gradient at a flow rate of 0.4 ml/min. Initial LC conditions comprised 10% formic acid (0.1%) in water (A), 90% methanol (B). This was ramped to […] at 12 min. Sample analysis was by positive ion electrospray ionization. The capillary voltage was 3.5 kV. Full MS/dd-MS^2 (full MS scan followed by data dependent MS/MS) and Full MS/AIF (full MS scan followed by all ion fragmentation) workflows were used in combination. Full MS was performed at a resolution of 70,000, AGC target 1 e^6; dd-MS2 at a resolution of 17,5000, AGC target 1 e^5. LC-MS response (peak area of the analyte/peak area of internal standard) was fitted to a nonlinear single exponential model using software GraphPad Prism software (v6.07, GraphPad Software, Inc., La Jolla, USA). Elimination rate constant (k) was determined and intrinsic clearance, CLint, was calculated as CLint = (V.k)/mg protein where V is the incubation volume (μl) and mg protein is the mg microsomal protein in the incubation. Identification of metabolites in microsomal incubations and elucidation of their structures was undertaken with Compound Discoverer software (v2.0.0.303, Thermo Fisher Scientific Inc., Waltham, USA).

Data set [3] can be described thus: In vitro non-radioactive metabolite analysis and clearance in HLM. It counts as in vitro ADME, human. Here is the method: as §1

On to `CC1(C)OC(=O)Nc2ccc(-c3cccnc3F)cc21` [Compound 1, 6-(2-fluoropyridin-3-yl)-4,4-dimethyl-1H-benzo[d][1,3]oxazin-2(4H)-one], for which, in data set [1], the EC50 is greater than 10000 nM, the “T47D alkaline phosphatase assay EC50” value is “did not induce an agonist response” and the IC50 came out at 844.8 ± 0.23 nM. Also, in data set [2] (MLM 1 mg/ml, NADPH 1 mM, 37 °C), the “Clearance (CLint) in MLM” value is reported as “comparable clearance”. Further, in data set [2] (MLM incubation, LC-MS/MS), the “Metabolite identification by mass spectrometry in MLM” value is recorded as “defluorinated species”. For the same compound, the “Clearance (CLint) in HLM” value in data set [3] (HLM 1 mg/ml, NADPH 1 mM, 37 °C) is reported as “comparable clearance”. For the same compound, the “Metabolite identification by mass spectrometry in HLM” value in data set [3] (HLM incubation, LC-MS/MS) was “defluorinated species”.

As to `CC1(C)OC(=O)Nc2ccc(-c3ccc(F)nc3)cc21` [Compound 3, 6-(6-fluoropyridin-3-yl)-4,4-dimethyl-1H-benzo[d][1,3]oxazin-2(4H)-one], in data set [1], the EC50 is greater than 10000 nM, the “T47D alkaline phosphatase assay EC50” value is reported as “did not induce an agonist response” and half-maximal inhibition (IC50) required 795 ± 0.25 nM.

Take `CC1(C)OC(=S)Nc2ccc(-c3ccc(F)nc3)cc21` [Compound 4, 6-(6-fluoropyridin-3-yl)-4,4-dimethyl-1H-benzo[d][1,3]oxazine-2(4H)-thione]: the EC50 in data set [1] amounted to 3674 ± 0.08 nM.

`CC1(C)OC(=O)Nc2ccc(-c3ccc(F)c(Cl)c3)cc21` [Compound 5, 6-(3-chloro-4-fluorophenyl)-4,4-dimethyl-1H-benzo[d][1,3]oxazin-2(4H)-one] registered an EC50 in data set [1] of 2294 ± 0.29 nM.

Regarding `CC1(C)OC(=S)Nc2ccc(-c3ccc(F)c(Cl)c3)cc21` [Compound 6, 6-(3-chloro-4-fluorophenyl)-4,4-dimethyl-1H-benzo[d][1,3]oxazine-2(4H)-thione], in data set [1], it took 432.5 ± 0.24 nM to reach a half-maximal effect (EC50). The “fold more potent (EC50) than oxocarbamate derivative 5” value in data set [1] (compound 6 versus 5) is given as roughly 5 fold.

For the compound `Cn1c(C#N)ccc1-c1ccc2c(c1)C(C)(C)OC(=S)N2` [TNP, Tanaproget], the EC50 in data set [1] turned out to be 0.5 nM.

Broadly, the EC50 is the concentration needed to bring the measured effect to its halfway point. Lower therefore signals an effect from little substance. The term IC50 denotes the concentration needed to halve the response being measured. A low value points to inhibition by little substance.

Values taken from publication PMC6328429, “Synthesis of a benzoxazinthione derivative of tanaproget and pharmacological evaluation for PET imaging of PR expression” (EJNMMI Radiopharmacy and Chemistry, 2019).
